Measured values: patent US20050239755A1, “External preparation for inhibiting keloid formation” (priority 2002, published 2005)

Columns and labels:
[1] = system: human fibroblast derived from keloid; experiment: Test of inhibition of collagen gel shrinking (human fibroblast derived from keloid); format: cell-based; details: for Shrinking rate: after 24 hours
Method: (§1) Test of Inhibition of Collagen Gel Shrinking. A collagen solution (1.5 mg/mL) (1 mL) and a suspension of human normal fibroblast or human fibroblast derived from keloid (1×10^5 cells) (1 mL) were added to a Petri dish (diameter; 35 mm) and mixed. The mixture was warmed for about 10 minutes in an incubator (37° C., 5% CO2) to prepare collagen gel. Further broth (1 mL) was added over thereon and was left for about 3 hours in the incubator (37° C., 5% CO2). The collagen gel was released from the Petri dish, and thereto was added a solution containing acetylsalicylic acid (its final concentration was respectively 0, 0.05, 0.5, 5, and 50 μM). The suspension was cultured in the incubator (37° C., 5% CO2) and after 24 hours the shrinking rate was evaluated.

human normal fibroblast = experiment: Test of inhibition of collagen gel shrinking (human normal fibroblast); format: cell-based; details: for Shrinking rate of collagen: after 24 hours
Method: as §1

SMILES: CC(=O)Oc1ccccc1C(=O)O [Acetylsalicylic acid]
- shrinking of collagen (in words) ([1]; Table 10): inhibited
- Shrinking rate ([1]; acetylsalicylic acid 0.05 μM): 21%
- Shrinking rate ([1]; acetylsalicylic acid 0.5 μM): 19%
- Shrinking rate ([1]; acetylsalicylic acid 5 μM): 24%
- Shrinking rate ([1]; acetylsalicylic acid 50 μM): 20%
- shrinking of collagen (in words) (human normal fibroblast; Table 9): inhibited
- Shrinking rate of collagen (human normal fibroblast; acetylsalicylic acid 0.05 μM): 23%
- Shrinking rate of collagen (human normal fibroblast; acetylsalicylic acid 0.5 μM): 12%
- Shrinking rate of collagen (human normal fibroblast; acetylsalicylic acid 5 μM): 10%
- Shrinking rate of collagen (human normal fibroblast; acetylsalicylic acid 50 μM): 14%
